From patent publication US6482814B1, “Biocidal composition and its use” (Avecia Limited, priority 1998, dated 2002)

What was measured:
Pseudomonas aeruginosa [1] = experiment: Determination of MIC (microtitre doubling dilution), bacteria; assay type: cell-based; settings: chemical alone; visual growth after 24 hours at 37° C.
Experimental: (§1) Bacteria were grown to stationary phase (18 hours) in nutrient broth to give approximately 10^9 colony forming units per ml (CFU/ml). A 0.1% (v/v) inoculum was used to seed fresh medium and 100 μl was then added to each well of a microtitre plate, except for the first well which contained 200 μl. By using a doubling dilution technique, the concentration of the chemical under investigation was varied in each well along the ordinate axis. The presence or absence of bacterial growth was determined by visual inspection after 24 hours incubation at 37° C.

Aspergillus niger [2] = experiment: Determination of MIC (microtitre doubling dilution), fungi; assay type: cell-based; settings: chemical alone; visual growth after 48 hours at 25° C.
Experimental: as §1
(§2) The presence or absence of fungal growth was determined by visual inspection after incubation for 48 hours at 25° C.

Aspergillus niger [3] = experiment: Determination of FIC (10x10 matrix, isobologram); assay type: cell-based; settings: for concentration in the optimal composition: component of the combination BBIT + ZHMT; for Optimal FIC Concentration: component of the combination BBIT + ZO
Source text: (§3) The composition of the present invention has antimicrobial properties and has been found particularly effective against deteriogens for plastics materials, especially in soil burial applications. […] The FIC is the ratio of the amount of each component in the composition relative to its Minimum Inhibitory Concentration (MIC) when used alone. […] When the sum of the FIC values is below one, the mixture is synergistic and when the sum of the FIC values is greater than one, the mixture is antagonistic. The FIC values are preferably determined by constructing an isobologram wherein each component in a matrix array is varied stepwise from a concentration in excess of the MIC down to zero ppm.
(§4) A matrix was constructed in a 10×10 array in microtitre wells wherein the concentration of each chemical was varied stepwise by serial dilution from a concentration of twice the MIC down to zero. As each microtitre plate contains only 96 wells the combination of the two compounds making up the extreme concentrations (highest and lowest) were omitted. Each mixture (100 μl) was added to the plate so that the total volume was maintained at 200 μl. By transferring 100 μl from each well to the adjacent well containing 100 μl nutrient the concentration of the chemical was reduced from twice the MIC to zero in a stepwise manner.
(§5) The presence or absence of growth was determined visually after incubation. The plates containing bacteria were incubated for 16-24 hours at 37° C. and the plates containing fungi were incubated for 40-72 hours at 25° C. From the matrix an isobologram was created and the FIC for each chemical of the composition calculated. The FIC is the ratio of the concentration of chemical which inhibits growth when applied as a combination of chemicals relative to the MIC for that chemical when applied alone.
(§6) The FIC values for the combination of N-n-butyl-1,2-benzisothiazolin-3-one (BBIT) and the 2:1 zinc complex of 3-hydroxy-4-methylthiazol-2(3H)-thione against a bacterium and a fungus are recorded in Tables 2 and 3, respectively.
(§7) The FIC values for N-n-butyl-1,2-benzisothiazolin-3-one and the 2:1 zinc complex of 1-hydroxypyridine-2-thione were determined in similar manner to that described in Example 1.

Pseudomonas aeruginosa [4] = experiment: Determination of FIC (10x10 matrix, isobologram); assay type: cell-based; settings: for concentration in the optimal composition: component of the combination BBIT + ZHMT; for Optimal FIC Concentration: component of the combination BBIT + ZO
Source text: as §3, §4, §5, §6, §7

Alternaria alternata [5] = experiment: Determination of FIC (10x10 matrix, isobologram); assay type: cell-based; settings: component of the combination BBIT + ZO
Source text: as §3
A matrix was constructed in a 10×10 array in microtitre wells wherein the concentration of each chemical was varied stepwise by serial dilution from a concentration of twice the MIC down to zero. As each microtitre plate contains only 96 wells the combination of the two compounds making up the extreme concentrations (highest and lowest) were omitted. […]
The presence or absence of growth was determined visually after incubation. […] From the matrix an isobologram was created and the FIC for each chemical of the composition calculated. […]
as §7

Aureobasidium pullulans = experiment: Determination of MIC (microtitre doubling dilution), fungi; assay type: cell-based; settings: chemical alone; visual growth after 48 hours at 25° C.
Experimental: as §1, §2

Alternaria alternata [6] = experiment: as above; assay type: cell-based; settings: chemical alone; visual growth after 48 hours at 25° C.
Experimental: as §1, §2

[7] = system: mixed inoculum of Aureobasidium pullulans, Fusarium enicillium funicularum, Scopulariopsis brevicaulis and Streptoverticillium waksmanii; experiment: Soil burial of plasticised PVC strips, weight loss; settings: PVC strip, 3000 ppm
Experimental: Polvinylchioride sheets were prepared by callendaring the following mixture at 160° C.
100 parts Polyvinylchloride (Evipol SH65/20 ex EVC)
25 parts Dioctylphthalate (ex BP Chemicals)
25 parts Dioctyladipate (ex BP Chemicals)
2 parts Mixed Ca/Zn salt Lankromark LN138 as stabiliser (ex Lankro Chem)
3 parts Lankroflex ED6 as stabiliser/plasticiser (ex Lankro Chem)
5 parts Calcium stearate (ex Aldrich)
0.2 parts Stearic acid (ex Aldrich)
Sheets were fabricated with and without a 1:1 mixture of N-n-butyl-1,2-benzisothiazolin 3-one (BBIT) and the 2:1 zinc complex of 1-hydroxypyridine-2-thione (ZO). […]
Strips of the PVC (8 parts, 12.5×5 cm) were weighed to 4 decimal places, folded and buried in potting compost (John Innes No 2) in a plastic humidity chamber. The compost was sprayed with a mixed inoculum of Aureobasidium pullulans, Fusarium enicillium funicularum, Scopulariopsis brevicaulis and Streptoverticillium waksmanii and incubated at 25° C. The PVC strips were examined at 4 weeks intervals when they were cleaned, dried and weighed. The weight loss is recorded in Table 5 below.

Cc1csc(=S)n1[O-].Cc1csc(=S)n1[O-].[Zn+2] [ZHMT, 2:1 zinc complex of 3-hydroxy-4-methylthiazol-2(3H)-thione]
MIC (Pseudomonas aeruginosa [1]): 16 ppm
MIC (Aspergillus niger [2]): 16 ppm
concentration in the optimal composition (Aspergillus niger [3]): 5.9 ppm
concentration in the optimal composition (Pseudomonas aeruginosa [4]): 10.6 ppm

CCCCn1sc2ccccc2c1=O [BBIT, N-n-butyl-1,2-benzisothiazolin-3-one]
MIC (Pseudomonas aeruginosa [1]): 444 ppm
Optimal FIC Concentration (Alternaria alternata [5]): 22 ppm
MIC (Aspergillus niger [2]): 44.5 ppm
MIC (Aureobasidium pullulans): 3 ppm
MIC (Alternaria alternata [6]): 67 ppm
Weight Loss ([7]; 0 weeks): 0%
Weight Loss ([7]; 4 weeks): 1.2%
Weight Loss ([7]; 8 weeks): 2.8%
Weight Loss ([7]; 12 weeks): 5.6%
Weight Loss ([7]; 16 weeks): 8.1%
concentration in the optimal composition (Aspergillus niger [3]): 17.4 ppm
Optimal FIC Concentration (Aspergillus niger [3]): 5.3 ppm
concentration in the optimal composition (Pseudomonas aeruginosa [4]): 111 ppm
Optimal FIC Concentration (Pseudomonas aeruginosa [4]): 111 ppm

[O-]n1ccccc1=S.[O-]n1ccccc1=S.[Zn+2] [ZO, 2:1 zinc complex of 1-hydroxypyridine-2-thione]
MIC (Pseudomonas aeruginosa [1]): 33.5 ppm
Optimal FIC Concentration (Alternaria alternata [5]): 22 ppm
MIC (Aspergillus niger [2]): 11 ppm
MIC (Aureobasidium pullulans): 1.5 ppm
MIC (Alternaria alternata [6]): 55 ppm
Weight Loss ([7]; 0 weeks): 0%
Weight Loss ([7]; 4 weeks): 0.3%
Weight Loss ([7]; 8 weeks): 0.8%
Weight Loss ([7]; 12 weeks): 1.5%
Weight Loss ([7]; 16 weeks): 2.3%
Optimal FIC Concentration (Aspergillus niger [3]): 8.3 ppm
Optimal FIC Concentration (Pseudomonas aeruginosa [4]): 16.4 ppm
